{
  "source": "the Kinase Knowledgebase extract (Sharma et al. 2016)",
  "data": [
    {"target": "ROCK2 (human) (UniProt O75116)", "sequence (O75116 whole entry, looked up)": "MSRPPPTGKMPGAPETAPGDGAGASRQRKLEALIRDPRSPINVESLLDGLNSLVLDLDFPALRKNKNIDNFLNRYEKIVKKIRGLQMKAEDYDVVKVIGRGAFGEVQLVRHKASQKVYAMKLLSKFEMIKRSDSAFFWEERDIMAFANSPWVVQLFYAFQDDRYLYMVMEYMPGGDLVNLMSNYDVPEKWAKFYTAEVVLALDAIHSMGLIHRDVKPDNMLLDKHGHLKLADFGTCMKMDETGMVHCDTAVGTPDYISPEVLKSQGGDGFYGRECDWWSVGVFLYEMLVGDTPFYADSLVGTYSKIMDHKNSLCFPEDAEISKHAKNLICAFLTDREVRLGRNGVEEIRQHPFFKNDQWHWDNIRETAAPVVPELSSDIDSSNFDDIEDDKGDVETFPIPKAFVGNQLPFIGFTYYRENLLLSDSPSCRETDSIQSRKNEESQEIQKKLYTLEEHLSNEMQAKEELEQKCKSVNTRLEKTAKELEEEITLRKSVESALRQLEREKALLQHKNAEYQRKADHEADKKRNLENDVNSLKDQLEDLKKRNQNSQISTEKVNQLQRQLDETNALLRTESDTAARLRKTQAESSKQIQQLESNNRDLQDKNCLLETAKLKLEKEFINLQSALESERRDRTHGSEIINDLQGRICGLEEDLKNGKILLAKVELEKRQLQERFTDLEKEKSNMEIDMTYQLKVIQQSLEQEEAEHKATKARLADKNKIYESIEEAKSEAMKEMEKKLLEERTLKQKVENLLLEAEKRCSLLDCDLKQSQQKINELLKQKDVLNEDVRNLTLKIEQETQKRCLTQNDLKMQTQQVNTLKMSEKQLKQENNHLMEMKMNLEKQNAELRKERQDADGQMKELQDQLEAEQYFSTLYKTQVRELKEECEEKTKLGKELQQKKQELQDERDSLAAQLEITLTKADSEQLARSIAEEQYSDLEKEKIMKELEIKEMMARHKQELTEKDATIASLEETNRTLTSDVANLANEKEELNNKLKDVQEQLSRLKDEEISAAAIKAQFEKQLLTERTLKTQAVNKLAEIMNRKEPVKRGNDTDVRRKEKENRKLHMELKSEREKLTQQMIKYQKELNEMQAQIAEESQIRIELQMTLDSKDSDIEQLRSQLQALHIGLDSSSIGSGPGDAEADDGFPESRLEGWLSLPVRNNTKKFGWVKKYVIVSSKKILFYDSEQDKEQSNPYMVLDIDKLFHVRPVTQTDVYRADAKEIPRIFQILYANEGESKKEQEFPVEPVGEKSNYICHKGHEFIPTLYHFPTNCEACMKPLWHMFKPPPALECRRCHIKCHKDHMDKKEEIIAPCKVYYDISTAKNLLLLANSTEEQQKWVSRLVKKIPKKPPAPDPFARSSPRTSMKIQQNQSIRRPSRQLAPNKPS", "test": "Inhibition of ROCK2 Kinase Activity", "units": {"IC50": "µM"}, "values": [
      {"smiles": "Cc1cccc(C(=O)NCc2c[nH]c(-c3ccncc3)n2)c1O", "IC50": "> 5"},
      {"smiles": "O=C(Cc1c(F)cccc1F)NCc1nc(-c2c[nH]c3ncccc23)n[nH]1", "IC50": "> 5"},
      {"smiles": "COc1cc(C(=O)NCc2nc(-c3ccncc3)n[nH]2)cc(OC)c1O", "IC50": "> 5"},
      {"smiles": "CC(NC(=O)OC(C)(C)C)C(=O)NCc1nc(-c2c[nH]c3ncccc23)n[nH]1", "note": "(configuration not stated)", "IC50": "> 5"},
      {"smiles": "O=C(NCc1nc(-c2c[nH]c3ncccc23)n[nH]1)c1cc2cc(Cl)ccc2o1", "IC50": "> 5"},
      {"smiles": "O=C(NCc1nc(-c2c[nH]c3ncccc23)n[nH]1)c1ccc(F)c(F)c1", "IC50": "> 5"},
      {"smiles": "O=C(C=Cc1ccc(Cl)cc1)NCc1nc(-c2ccncc2)n[nH]1", "IC50": "> 5"},
      {"smiles": "COc1cc(Cl)ccc1C(=O)NCc1nc(-c2ccncc2)n[nH]1", "IC50": "> 5"},
      {"smiles": "Cc1c(C(=O)NCc2nc(-c3ccncc3)n[nH]2)cccc1[N+](=O)[O-]", "IC50": "> 5"},
      {"smiles": "N#Cc1cccc(C(=O)NCc2nc(-c3ccncc3)n[nH]2)c1", "IC50": "> 5"},
      {"smiles": "Cc1cc(C(=O)NCc2nc(-c3c[nH]c4ncccc34)n[nH]2)n[nH]1", "IC50": "> 5"},
      {"smiles": "O=C(NCc1nc(-c2c[nH]c3ncccc23)n[nH]1)c1cnc(O)c(Cl)c1", "IC50": "> 5"},
      {"smiles": "O=C(Cc1ccc(Br)cc1)NCc1nc(-c2c[nH]c3ncccc23)n[nH]1", "IC50": "> 5"},
      {"smiles": "Cc1ccccc1C(=O)NCc1nc(-c2ccncc2)n[nH]1", "IC50": "> 5"},
      {"smiles": "O=C(NCc1nc(-c2c[nH]c3ncccc23)n[nH]1)c1cc(F)c(F)cc1[N+](=O)[O-]", "IC50": "> 5"},
      {"smiles": "COc1cccc(O)c1C(=O)NCc1nc(-c2c[nH]c3ncccc23)n[nH]1", "IC50": "> 5"},
      {"smiles": "O=C(NCc1nc(-c2ccncc2)n[nH]1)c1ccnc(Cl)c1", "IC50": "> 5"},
      {"smiles": "O=C(NCc1nc(-c2c[nH]c3ncccc23)n[nH]1)c1cc(Br)ccc1Cl", "IC50": "> 5"},
      {"smiles": "COc1ccc([N+](=O)[O-])c(C(=O)NCc2nc(-c3c[nH]c4ncccc34)n[nH]2)c1", "IC50": "> 5"},
      {"smiles": "O=C(NCc1nc(-c2c[nH]c3ncccc23)n[nH]1)C1CCCO1", "note": "(configuration not stated)", "IC50": "> 5"},
      {"smiles": "O=C(NCc1nc(-c2ccncc2)n[nH]1)c1cccc(Cl)c1O", "IC50": "≤ 5"},
      {"smiles": "O=C(NCc1nc(-c2c[nH]c3ncccc23)n[nH]1)c1ccc(Oc2ccccc2)cc1", "IC50": "> 5"},
      {"smiles": "CC(=O)c1ccccc1C(=O)NCc1nc(-c2c[nH]c3ncccc23)n[nH]1", "IC50": "> 5"},
      {"smiles": "O=C(NCc1nc(-c2c[nH]c3ncccc23)n[nH]1)c1ccc(F)c([N+](=O)[O-])c1", "IC50": "> 5"},
      {"smiles": "COc1cc(C=CC(=O)NCc2nc(-c3ccncc3)n[nH]2)ccc1O", "IC50": "> 5"},
      {"smiles": "Cc1c(C(=O)NCc2nc(-c3ccncc3)n[nH]2)oc2ccccc12", "IC50": "> 5"},
      {"smiles": "O=C(NCc1nc(-c2c[nH]c3ncccc23)n[nH]1)c1c(O)ccc2ccccc12", "IC50": "> 5"},
      {"smiles": "O=C(Cc1ccc2c(c1)OCO2)NCc1nc(-c2ccncc2)n[nH]1", "IC50": "> 5"},
      {"smiles": "O=C(NCc1nc(-c2ccncc2)n[nH]1)c1cc(Cl)ccc1Cl", "IC50": "> 5"},
      {"smiles": "CC(=O)NCC(=O)NCc1nc(-c2c[nH]c3ncccc23)n[nH]1", "IC50": "> 5"},
      {"smiles": "O=C(NCc1nc(-c2c[nH]c3ncccc23)n[nH]1)c1c(F)cccc1Cl", "IC50": "> 5"},
      {"smiles": "CC(C)(C)OC(=O)NC(Cc1ccccc1)C(=O)NCc1nc(-c2c[nH]c3ncccc23)n[nH]1", "note": "(configuration not stated)", "IC50": "> 5"},
      {"smiles": "O=C(C=Cc1ccc(Cl)cc1)NCc1nc(-c2c[nH]c3ncccc23)n[nH]1", "IC50": "> 5"},
      {"smiles": "O=C(NCc1nc(-c2c[nH]c3ncccc23)n[nH]1)C(F)(F)F", "IC50": "> 5"},
      {"smiles": "O=C(NCc1nc(-c2c[nH]c3ncccc23)n[nH]1)c1cccc(Br)c1", "IC50": "> 5"},
      {"smiles": "O=C(NCc1nc(-c2c[nH]c3ncccc23)n[nH]1)c1cc([N+](=O)[O-])ccc1F", "IC50": "> 5"},
      {"smiles": "O=C(Cc1ccccc1CO)NCc1nc(-c2c[nH]c3ncccc23)n[nH]1", "IC50": "> 5"},
      {"smiles": "CC(C)(C)OC(=O)N1CCCCC1C(=O)NCc1nc(-c2ccncc2)n[nH]1", "note": "(configuration not stated)", "IC50": "> 5"},
      {"smiles": "O=C(NCc1nc(-c2ccncc2)n[nH]1)c1cc2ccccc2s1", "IC50": "≤ 5"},
      {"smiles": "O=C(NCc1nc(-c2c[nH]c3ncccc23)n[nH]1)c1cscn1", "IC50": "> 5"},
      {"smiles": "O=C(NCc1nc(-c2ccncc2)n[nH]1)c1cnc[nH]1", "IC50": "> 5"},
      {"smiles": "O=C(NCc1nc(-c2ccncc2)n[nH]1)C(Cl)(Cl)Cl", "IC50": "> 5"}
    ]}
  ]
}
